Assay results published in US20180153850A1, “COMPOSITIONS AND METHODS FOR TREATMENT OF CANCER” (The Regents of the University of California, priority 2015, published 2018).
Read-outs that look alike come from different tables or passages of the source.

How the values were obtained:
[1] = test system: TaxR cells; experiment: Cell growth assay in TaxR cells; assay type: cell-based; details: 24 h, read-out: IC50 value of docetaxel, TaxR cells
Procedure: Top panel, fluorescent and phase contrast pictures are shown. Lower panel, rhodamine intake ratio. […] Cell numbers were counted after 24 hrs of treatment.
Fluorescent and phase contrast pictures are shown. Lower panel is the rhodamine intake ratio. […] Cell numbers were counted after 24 hrs of treatment. […] The numbers of colonies were counted after 3 weeks.
(§1) Cells were seeded in 12-well plates at a density of 1×10^5 cells per well. Cells were treated and total cell numbers were counted using a Coulter cell counter.

[2] = test system: DU145-DTXR cells; experiment: Cell growth assay in DU145-DTXR cells; assay type: cell-based; details: for IC50: 24 h; for docetaxel resistance in DU145-DTXR cells: 10 nM docetaxel with 0.5 μM elacridar or 20 μM bicalutamide or enzalutamide, 48 hrs
Procedure: (§2) Top panel, fluorescent and phase contrast pictures are shown. Lower panel, rhodamine intake ratio. […] Cell numbers were counted after 24 hrs of treatment. […] Cell numbers were counted after 24 hrs of treatment. […] Tumor sizes were measured twice a week.
DU145-DTXR cells were plated in 12-well plate at 1×10^5 cells per well. […] FIG. 8A: Cell numbers were counted. FIG. 8B: Cell pictures were taken to show the cell survival inhibition.
DU145-DTXR cells were plated in 12-well plate at 1×10^5 cells per well. […] Cell numbers were counted (top panel: bicalutamide; bottom panel: enzalutamide). FIG. 9B: DU145 parental cells and DU145-DTX cells were plated in 12-well plate at 1×10^5 cells per well. […] Cell numbers were counted.
as §1

[3] = test system: DU145 cells; experiment: Cell growth assay in parental DU145 cells; assay type: cell-based; details: Homo sapiens, DU-145, read-out: IC50 to docetaxel, 24 hrs
Procedure: as §2, §1

[4] = test system: C4-2B tumors; experiment: In vivo tumorigenesis assay, C4-2B tumors; design: species or system SCID mice; details: docetaxel 10 mg/kg once a week
Procedure: (§3) Tumor sizes were measured twice a week. *, P<0.05. **, P<0.01. DTX, docetaxel, Bic, bicalutamide.
(§4) Tumor tissues were harvested after 3 weeks of treatment.

[5] = test system: TaxR tumors; experiment: In vivo tumorigenesis assay, TaxR tumors; design: species or system SCID mice; details: docetaxel 10 mg/kg i.p. once a week; bicalutamide 25 mg/kg p.o. 5 days a week; 3 weeks
Procedure: as §3, §4

[6] = molecular target: ABCB1 (P-gp) ATPase (Homo sapiens, UniProt P08183); experiment: in vitro
ABCB1 (P-gp) ATPase, sequence (P08183 whole entry): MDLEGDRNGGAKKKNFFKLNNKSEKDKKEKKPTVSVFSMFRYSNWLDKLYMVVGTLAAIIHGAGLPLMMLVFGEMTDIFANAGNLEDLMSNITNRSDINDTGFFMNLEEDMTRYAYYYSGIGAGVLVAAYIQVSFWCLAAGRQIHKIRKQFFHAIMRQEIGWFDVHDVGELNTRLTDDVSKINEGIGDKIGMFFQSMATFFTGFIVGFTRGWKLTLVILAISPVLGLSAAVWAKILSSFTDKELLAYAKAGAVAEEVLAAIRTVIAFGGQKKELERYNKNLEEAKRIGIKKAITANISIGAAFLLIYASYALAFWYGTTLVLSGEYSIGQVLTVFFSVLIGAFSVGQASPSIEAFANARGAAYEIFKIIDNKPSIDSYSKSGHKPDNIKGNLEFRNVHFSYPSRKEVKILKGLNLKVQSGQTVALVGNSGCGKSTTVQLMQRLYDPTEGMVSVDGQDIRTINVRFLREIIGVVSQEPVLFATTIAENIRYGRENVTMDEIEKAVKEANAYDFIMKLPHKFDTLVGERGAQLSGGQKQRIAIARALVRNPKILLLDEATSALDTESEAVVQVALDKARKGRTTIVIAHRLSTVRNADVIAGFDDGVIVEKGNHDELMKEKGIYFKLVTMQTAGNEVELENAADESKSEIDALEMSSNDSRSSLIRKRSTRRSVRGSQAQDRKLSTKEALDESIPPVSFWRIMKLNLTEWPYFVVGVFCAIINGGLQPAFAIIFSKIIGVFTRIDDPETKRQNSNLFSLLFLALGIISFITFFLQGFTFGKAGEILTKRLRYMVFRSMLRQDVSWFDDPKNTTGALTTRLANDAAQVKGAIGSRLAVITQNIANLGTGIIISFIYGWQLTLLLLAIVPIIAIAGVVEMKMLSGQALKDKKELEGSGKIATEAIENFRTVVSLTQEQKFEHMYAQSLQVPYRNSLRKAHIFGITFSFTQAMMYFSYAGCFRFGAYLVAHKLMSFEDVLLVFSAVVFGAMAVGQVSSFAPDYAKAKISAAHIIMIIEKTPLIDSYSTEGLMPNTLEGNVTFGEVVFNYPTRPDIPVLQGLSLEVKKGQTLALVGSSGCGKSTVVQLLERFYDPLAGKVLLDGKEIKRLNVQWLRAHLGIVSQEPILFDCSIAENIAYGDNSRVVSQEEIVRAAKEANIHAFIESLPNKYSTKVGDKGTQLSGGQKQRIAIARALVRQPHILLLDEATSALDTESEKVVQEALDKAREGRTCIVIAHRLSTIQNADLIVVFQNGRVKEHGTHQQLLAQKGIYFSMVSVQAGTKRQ

[7] = molecular target: ABCB1 (Homo sapiens, UniProt P08183); details: 48 h, 20 μmol/L
ABCB1, sequence (P08183 whole entry): as above

[8] = molecular target: ABCB1 (P-glycoprotein, MDR1) (Homo sapiens, UniProt P08183); experiment: in vitro
ABCB1 (P-glycoprotein, MDR1), sequence (P08183 whole entry): as above

IC50 ([2]; read-out: IC50 to docetaxel) [nM] | IC50 ([2]; read-out: IC50 value of docetaxel) [nM] | inhibition at 40 min, 2.5 µM [6] [%] | rhodamine intake [7] [%] | inhibition at 24 h, 20 μM [8] [%] | inhibition at 40 min, 40 µM [6] [%] | Compound | IC50 ([1]; docetaxel alone, 24 hrs) [nM] | IC50 ([1]; in combination with 20 μM bicalutamide, 24 hrs) [nM] | IC50 ([1]; in combination with 20 μM enzalutamide, 24 hr) [nM] | effect on growth of DU145-DTXR cells ([2]; 10 nM docetaxel, 20 μM bicalutamide, alone or combined, 24 hrs) | IC50 [3] [nM] | C4-2B tumor growth [4] | tumor growth of TaxR cells [5] | docetaxel resistance in DU145-DTXR cells [2]
52 | ~7.5 | – | – | – | – | CC(=O)O[C@@]12CO[C@@H]1C[C@H](O)[C@@]1(C)C(=O)[C@H](O)C3=C(C)[C@@H](OC(=O)[C@H](O)[C@@H](NC(=O)OC(C)(C)C)c4ccccc4)C[C@@](O)([C@@H](OC(=O)c4ccccc4)[C@H]21)C3(C)C [docetaxel] | 140 | ~5 | ~3 | only minimal effects | 4.3 | significantly repressed | Neither docetaxel nor bicalutamide treatment alone inhibited tumor growth | –
– | – | 69 | – | – | – | COc1cc2c(cc1OC)CN(CCc1ccc(NC(=O)c3cccc4c(=O)c5cccc(OC)c5[nH]c34)cc1)CC2 [elacridar] | – | – | – | – | – | – | – | reversal of docetaxel resistance
– | – | – | 66.2 | ~60 | 60 | CNC(=O)c1ccc(N2C(=S)N(c3ccc(C#N)c(C(F)(F)F)c3)C(=O)C2(C)C)cc1F [enzalutamide] | – | – | – | – | – | – | – | reversal of docetaxel resistance
